Data: PMC10382584, “Macrocyclization of linear molecules by deep learning to facilitate macrocyclic drug candidates discovery” (Nature Communications, 2023)
Several values for one entry are separate records, joined by “and”; a condition that tells them apart may be missing. Identical values can stand only once. Like-named read-outs stand apart in the source and are kept apart here.

Assays:
JAK2 = biological target: T1, JAK2 (Homo sapiens, UniProt O60674); assay: JAK2 enzyme assay (Z'-LYTE kinase assay kit); format: biochemical
T1 construct: 0.05–0.42 ng JAK2, 2 μM peptide substrate (Tyr06)
T1 sequence (O60674 whole entry): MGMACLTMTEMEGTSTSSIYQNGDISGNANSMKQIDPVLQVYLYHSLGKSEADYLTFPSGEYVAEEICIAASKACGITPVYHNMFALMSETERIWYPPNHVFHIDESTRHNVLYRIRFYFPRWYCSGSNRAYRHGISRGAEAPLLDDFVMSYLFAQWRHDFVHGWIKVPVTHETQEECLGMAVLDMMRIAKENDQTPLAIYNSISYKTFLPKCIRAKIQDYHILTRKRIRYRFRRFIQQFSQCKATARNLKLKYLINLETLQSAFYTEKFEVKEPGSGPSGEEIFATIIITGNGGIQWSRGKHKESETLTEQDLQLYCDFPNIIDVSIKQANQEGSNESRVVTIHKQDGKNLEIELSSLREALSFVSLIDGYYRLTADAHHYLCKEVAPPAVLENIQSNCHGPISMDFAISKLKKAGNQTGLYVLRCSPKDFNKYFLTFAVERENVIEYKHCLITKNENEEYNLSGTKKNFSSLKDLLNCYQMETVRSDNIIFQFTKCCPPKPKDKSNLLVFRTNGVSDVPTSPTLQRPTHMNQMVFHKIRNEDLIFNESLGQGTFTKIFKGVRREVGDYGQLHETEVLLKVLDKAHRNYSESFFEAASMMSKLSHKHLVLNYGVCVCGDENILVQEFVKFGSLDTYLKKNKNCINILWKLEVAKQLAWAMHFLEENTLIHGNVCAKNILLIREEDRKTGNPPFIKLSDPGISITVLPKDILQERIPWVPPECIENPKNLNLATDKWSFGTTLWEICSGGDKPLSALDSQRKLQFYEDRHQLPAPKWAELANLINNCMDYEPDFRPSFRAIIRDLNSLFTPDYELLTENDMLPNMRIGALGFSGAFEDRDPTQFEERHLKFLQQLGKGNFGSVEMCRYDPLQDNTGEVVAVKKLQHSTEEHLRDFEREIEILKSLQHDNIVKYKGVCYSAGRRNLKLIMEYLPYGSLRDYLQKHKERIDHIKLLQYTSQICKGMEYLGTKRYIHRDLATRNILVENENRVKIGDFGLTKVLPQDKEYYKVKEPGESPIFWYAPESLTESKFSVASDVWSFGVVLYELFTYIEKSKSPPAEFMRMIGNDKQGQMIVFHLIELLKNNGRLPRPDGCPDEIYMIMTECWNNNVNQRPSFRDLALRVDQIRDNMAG
Experimental: JAK kinase activity assays were performed using Z’-LYTETM kinase assay kit (Life Technologies, pv4122). […] The mixture was added into the 384-well microplate, shaken gently, and then incubated at room temperature for 1 h. Subsequently, 5 μL development solution was added to the well for incubating another 1 h. Finally, 5 μL stop reagent was added to stop the reaction. […] IC50 values were calculated using GraphPad Prism v8.0.3, and three parallel experiments were performed.

HEL cells = assay: Cell proliferation assay (CCK-8), HEL cells; format: cell-based, human; conditions: for Inhibition (%): single wells, replicates 1 and 2
Experimental: (§1) The human erythroid leukemia (HEL 92.1.7) cells were purchased from the American Type Culture Collection (ATCC, TIB-180), and the human megakaryoblastic (SET2) cells were obtained from German Collection of Microorganisms and Cell Cultures (DSMZ, ACC 608). The anti-proliferative activities of compounds were evaluated using WST-8 cell counting kit-8 (Elabscience). HEL and SET-2 cells were seeded at 5000 cells/well in 70 μL RPMI-1640 medium (Hyclon) with 10% FBS (Gibco) to the 96-well plate and incubated overnight at 37 °C with 5% CO2. The compounds were serially diluted in RPMI-1640 medium, and cells were treated separately with 30 μL various concentrations of compounds for 72 h. The final DMSO concentration in the culture wells was 0.1%, which had no effect on the cell viability. Finally, 10 μL of CCK-8 solution was added into the wells. 4 h later, the absorbance values at 450 nm were recorded. IC50 values were determined using GraphPad Prism v8.3.0, and three parallel experiments were performed.

SET-2 cells = assay: Cell proliferation assay (CCK-8), SET-2 cells; format: cell-based, human; conditions: for Inhibition (%): single wells, replicates 1 and 2
Experimental: as §1

In vivo PK study in mice = conditions: mice
Experimental: The mice were separately administered to a group of three mice per time point for intravenous (5 mg/kg) or oral administration (5 mg/kg). […] Then the samples were separated by centrifugation and analyzed by LC-MS/MS (XEVO TQ-S) to determine the plasma drug concentrations. The PK parameters were calculated using the noncompartment model with Phoenix WinNonLin v8.0. The animal experimental procedures were approved by the Medicine Research Ethics Committee of Hangzhou Leading Pharmatech Co., Ltd.
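Wherever AUCinf is given: mice dosed intravenously or orally, three animals per time point, plasma drug levels quantified by LC-MS/MS, PK parameters derived by noncompartmental analysis in Phoenix WinNonLin.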
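Wherever Cmax is given: mice dosed intravenously or orally, three animals per time point, plasma drug levels quantified by LC-MS/MS, PK parameters derived by noncompartmental analysis in Phoenix WinNonLin.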
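Wherever T1/2 is given: mice dosed intravenously or orally, three animals per time point, plasma drug levels quantified by LC-MS/MS, PK parameters derived by noncompartmental analysis in Phoenix WinNonLin.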
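Wherever Tmax is given: mice dosed intravenously or orally, three animals per time point, plasma drug levels quantified by LC-MS/MS, PK parameters derived by noncompartmental analysis in Phoenix WinNonLin.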

SMILES: Cc1cnc2nc1Nc1cccc(c1)COCc1cc(ccc1OCCN1CCCC1)N2 [Compound 1]
- IC50 (JAK2; JAK2, 25 μM ATP, mean ± SD, n = 3, read-out: Enzyme Inhibitory Activity (IC50)): 0.07 µM
- IC50 (JAK2; JAK2 enzyme, mean of 3 replicates, read-out: IC50/μM mean, enzyme inhibitory activity): 0.07 µM
- IC50 (JAK2; JAK2 enzyme, mean ± SD of 3 replicates, read-out: IC50/μM mean ± SD, enzyme inhibitory activity): 0.07 ± 0.006 µM
- IC50 (JAK2; JAK2 enzyme, single-replicate fits (replicates 1-3), read-out: IC50/μM (individual replicates), enzyme inhibitory activity): 0.072 µM and 0.064 µM and 0.075 µM
- Inhibition (%) (HEL cells; HEL cell lines, 0.0977 μM): 2.2777% and 0.5143% and -1.6899% and 3.096% and 4.826% and 5.277%
- Inhibition (%) (HEL cells; HEL cell lines, 0.1953 μM): 5.8046% and 4.8494% and 8.1558% and 6.255% and 8.812% and 5.578%
- Inhibition (%) (HEL cells; HEL cell lines, 0.3906 μM): 18.9566% and 20.0588% and 8.5966% and 7.458% and 10.165% and 8.511%
- Inhibition (%) (HEL cells; HEL cell lines, 0.7813 μM): 26.0838% and 31.3005% and 30.4188% and 11.594% and 18.814% and 14.151%
- Inhibition (%) (HEL cells; HEL cell lines, 1.5625 μM): 34.0926% and 44.3057% and 45.4813% and 25.056% and 31.900% and 30.547%
- Inhibition (%) (HEL cells; HEL cell lines, 3.1250 μM, 3.125 µM): 46.4364% and 51.6532% and 53.8575% and 56.869% and 60.404% and 60.629%
- Inhibition (%) (HEL cells; HEL cell lines, 6.2500 μM, 6.25 µM): 64.2910% and 65.8339% and 68.7730% and 85.974% and 88.155% and 87.628%
- Inhibition (%) (HEL cells; HEL cell lines, 12.5000 μM, 12.5 µM): 80.4555% and 78.6187% and 81.4842% and 94.397% and 94.999% and 94.924%
- IC50 (HEL cells; HEL cell lines, mean of 2 replicates, read-out: IC50/μM mean, cellular antiproliferative activity): 2.41 µM
- IC50 (HEL cells; HEL cell lines, mean ± sd of 2 replicates, read-out: IC50/μM mean ± sd, cellular antiproliferative activity): 2.41 ± 0.2 µM
- IC50 (HEL cells; HEL cell lines, single-replicate fits, read-out: IC50/μM (individual replicates), cellular antiproliferative activity): 2.27 µM and 2.55 µM
- IC50 (HEL cells; HEL cells, 72 h, mean ± SD, read-out: Cellular Antiproliferative Activity (IC50) HEL): 2.41 ± 0.2 µM
- Inhibition (%) (SET-2 cells; SET-2 cell lines, 0.0977 μM): 5.3742% and 3.7022% and -1.2341% and 4.261% and 8.580% and 6.307%
- Inhibition (%) (SET-2 cells; SET-2 cell lines, 0.1953 μM): 7.5239% and 7.2850% and 0.8360% and 9.148% and 16.307% and 12.784%
- Inhibition (%) (SET-2 cells; SET-2 cell lines, 0.3906 μM): 10.3105% and 11.0271% and 3.0653% and 12.898% and 19.375% and 18.352%
- Inhibition (%) (SET-2 cells; SET-2 cell lines, 0.7813 μM): 17.3965% and 16.7596% and 8.4793% and 17.557% and 26.420% and 24.261%
- Inhibition (%) (SET-2 cells; SET-2 cell lines, 1.5625 μM): 26.9506% and 28.1449% and 22.3328% and 35.966% and 41.989% and 43.580%
- Inhibition (%) (SET-2 cells; SET-2 cell lines, 3.1250 μM, 3.125 µM): 60.6290% and 56.0111% and 56.4092% and 69.034% and 74.716% and 74.943%
- Inhibition (%) (SET-2 cells; SET-2 cell lines, 6.2500 μM, 6.25 µM): 97.5717% and 97.1736% and 97.3328% and 98.920% and 99.830% and 100.398%
- Inhibition (%) (SET-2 cells; SET-2 cell lines, 12.5000 μM, 12.5 µM): 96.8551% and 96.6959% and 97.3328% and 99.716% and 100.170% and 100.398%
- IC50 (SET-2 cells; SET-2 cell lines, mean of 2 replicates, read-out: IC50/μM mean, cellular antiproliferative activity): 1.64 µM
- IC50 (SET-2 cells; SET-2 cell lines, mean ± sd of 2 replicates, read-out: IC50/μM mean ± sd, cellular antiproliferative activity): 1.64 ± 0.03 µM
- IC50 (SET-2 cells; SET-2 cell lines, single-replicate fits, read-out: IC50/μM (individual replicates), cellular antiproliferative activity): 1.62 µM and 1.66 µM
- IC50 (SET-2 cells; SET-2 cells, 72 h, mean ± SD, read-out: Cellular Antiproliferative Activity (IC50) SET-2): 1.64 ± 0.03 µM
- AUCinf (In vivo PK study in mice; iv (5 mg/kg)): 752.47 ng·h/mL
- Cmax (In vivo PK study in mice; iv (5 mg/kg)): 76.57 ng/mL
- T1/2 (In vivo PK study in mice; iv (5 mg/kg)): 5.35 h
- Tmax (In vivo PK study in mice; iv (5 mg/kg)): 4.00 h
- AUCinf (In vivo PK study in mice; po (5 mg/kg)): 106.00 ng·h/mL
- Cmax (In vivo PK study in mice; po (5 mg/kg)): 10.35 ng/mL
- T1/2 (In vivo PK study in mice; po (5 mg/kg)): 4.47 h
- Tmax (In vivo PK study in mice; po (5 mg/kg)): 6.00 h
- F (bioavailability) (In vivo PK study in mice; po (5 mg/kg) vs iv (5 mg/kg)): 14.1%
